The text below walks through data of patent US11642333B2, “Inhalable formulation of a solution containing vilanterol trifenatate and umeclidinium bromide” (ANOVENT PHARMACEUTICAL (U.S.), LLC, priority 2019, dated 2023).

The nature of data set [1]: Content of umeclidinium bromide and vilanterol trifenatate in the inhalation solutions (tested results). The data set is classed as physicochemical. On the procedure:
50% benzalkonium chloride and tween-80 according to table 1, were dissolved in 16 g of 95% ethanol for three times, and then transferred into 100 ml volumetric flask. […] Finally, the flask was made to volume with purified water.
50% benzalkonium chloride and tween-80 according to table 3, were dissolved in 95% ethanol according to table 3 for three times, and then transferred into 100 ml volumetric flask. […] Finally, the flask was made to volume with purified water.
50% benzalkonium chloride and tween-80 according to table 5, were dissolved in 95% ethanol according to table 5 for three times, and then transferred into 100 ml volumetric flask. […] Finally, the flask was made to volume with purified water.

The conditions of data set [2]: in vivo; cited from earlier work.

As to `OC(c1ccccc1)(c1ccccc1)C12CC[N+](CCOCc3ccccc3)(CC1)CC2.[Br-]` [Umeclidinium bromide, 1-[2-(Benzyloxy)ethyl]-4-(hydroxydiphenylmethyl)-1-azoniabicyclo [2.2.2] octane bromide], the “Dissolution in the solution containing ethanol and tween-80” value was “completely dissolved” in data set [1] (sample I and sample II (table 2)); “completely dissolved” in data set [1] (sample III, sample IV and sample V (table 4)); “completely dissolved” in data set [1] (sample VI, sample VII and sample VIII (table 6)). Besides, the oral bioavailability entry in data set [2] is given as “poor”.
